Experimental data as given in ChEMBL document CHEMBL1159189, “Pyrazolo[3,4-d]pyrimidines; adenosine receptor selectivity” (Bioorg Med Chem Lett, 1995).

Key:
Adenosine receptor A2a [1] = biological target: T1, Adenosine receptor A2a (Rattus norvegicus, UniProt P30543); test: Binding affinity towards Adenosine A2a receptor by inhibition of [3H]CGS-21680 binding to rat brain striatum membranes; assay type: cell membranes, Membrane
Adenosine receptor A1 = biological target: T2, Adenosine receptor A1 (Rattus norvegicus, UniProt P25099); test: Binding affinity for Adenosine A1 receptor by inhibition of [3H]PIA binding to whole rat brain membranes; assay type: cell membranes, Membrane
T2 sequence (P25099 whole entry): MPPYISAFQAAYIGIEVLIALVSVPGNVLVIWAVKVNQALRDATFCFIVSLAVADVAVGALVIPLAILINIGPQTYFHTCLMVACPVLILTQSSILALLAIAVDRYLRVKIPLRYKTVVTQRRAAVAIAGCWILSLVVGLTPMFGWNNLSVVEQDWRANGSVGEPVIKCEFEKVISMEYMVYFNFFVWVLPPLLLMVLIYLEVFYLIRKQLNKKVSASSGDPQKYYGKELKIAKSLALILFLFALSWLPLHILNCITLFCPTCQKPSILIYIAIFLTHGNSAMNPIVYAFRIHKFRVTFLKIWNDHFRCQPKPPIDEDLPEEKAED

[2] = biological target: Adenosine receptors; A1 & A2a (Rattus norvegicus) (UniProt P25099+P30543); test: Ratio of binding affinities for adenosine receptor A2a and adenosine receptor A1; assay type: protein assay
Adenosine receptor A2a [3] = biological target: T1, Adenosine receptor A2a; test: Inhibitory activity against Adenosine A2a receptor binding site

Sequence of Adenosine receptors; A1 & A2a (Rattus norvegicus) (P30543 whole entry, looked up, one chain of several): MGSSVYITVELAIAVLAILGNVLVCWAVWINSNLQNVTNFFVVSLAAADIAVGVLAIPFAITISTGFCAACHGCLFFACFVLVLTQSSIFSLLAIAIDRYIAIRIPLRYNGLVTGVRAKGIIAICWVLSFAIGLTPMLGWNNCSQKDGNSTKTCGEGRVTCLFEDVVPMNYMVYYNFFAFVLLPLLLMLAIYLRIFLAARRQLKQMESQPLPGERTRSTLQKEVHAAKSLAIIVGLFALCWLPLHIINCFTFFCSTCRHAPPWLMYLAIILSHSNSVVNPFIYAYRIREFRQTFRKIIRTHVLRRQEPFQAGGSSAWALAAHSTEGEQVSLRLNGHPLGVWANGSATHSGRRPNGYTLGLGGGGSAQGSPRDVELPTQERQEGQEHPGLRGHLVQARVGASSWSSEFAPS
T1 sequence (P30543 whole entry): as the sequence (P30543 whole entry, looked up, one chain of several) above

Ki (Adenosine receptor A2a [1])	Ki (Adenosine receptor A1)	Ratio [2]	IC50 (Adenosine receptor A2a [3])	SMILES
1280 nM	551 nM	2.3		CCNC(=O)CCSc1nc(N)c2cnn(-c3ccccc3)c2n1
131 nM	12.1 nM	10.8		CCNC(=O)CSc1nc(N)c2cnn(-c3ccccc3)c2n1
			19.2 µM	CCCCn1c(=O)[nH]c2c(cnn2-c2cccc(Cl)c2)c1=N
146 nM	229 nM			CC(Sc1nc(SC(C)C(N)=O)c2cnn(-c3ccccc3)c2n1)C(N)=O (stereo not given)
44.9 nM	28.5 nM	1.6		NC(=O)CSc1nc(N)c2cnn(-c3ccccc3)c2n1
101 nM	428 nM	0.24		NC(=O)CCSc1nc(N)c2cnn(-c3ccccc3)c2n1
